# From patent US11098040B2, “Compounds and methods of use” (Ferro Therapeutics, Inc., priority 2018, dated 2021)
# Read-outs that look alike come from different tables or passages of the source.
# Assays:
# MiaPaCa-2 = experiment: Cell viability assay (CellTiter Glo), pancreatic carcinoma MiaPaCa-2; format: cell-based; conditions: Homo sapiens
# Protocol: (§1) Cell viability assay was performed to assess the potency of the compounds in human cancer cell lines KP4 (pancreatic ductal adenocarcinoma), MiaPaCa-2 (pancreatic carcinoma), AsPC-1 (pancreatic adenocarcinoma, ascites), 143B (osteosarcoma), and SJSA-1 (osteosarcoma). Selected compounds were also assayed in a human breast epithelial cell line MCF-10A, a nontumorigenic cell line as a control to assess differential activity. Cells at a density of 500-5,000 cells/well were seeded in 96-well plates and incubated at 37° C. overnight. A series of 9 different concentrations of compound stocks (500×) were created by 3-fold serial dilution in DMSO. These compounds were further diluted in culture media and then added to cells so that the final DMSO concentration was equal to 0.25% or less. After 96 hours of incubation, 50 μL of CellTiter Glo reagent (Promega) was added to each well and luminescence was measured after 10 minutes using EnVision (PerkinElmer). Compounds titrated from top concentration of up to 30 μM. The select compounds were tested initially from 30 μM as the top concentration in duplicates (range of 4.6 nM-30 μM). […] Luminescence from cells treated with DMSO alone was set as Max and % of inhibition was calculated as follows: Inhibition %=(Max-Sample value)/Max*100. Data was analyzed using XL-fit software (ID Business Solutions Ltd.). IC50, relative IC50, or % of top inhibition was calculated.
# The results of the assay in the pancreatic cell lines are given in Table 15a for PANC1, Table 15b for MiaPaCa-2, and Table 15c for AsPC-1.
# KP4 = experiment: Cell viability assay (CellTiter Glo), pancreatic ductal adenocarcinoma KP4; format: cell-based, human; conditions: Homo sapiens
# Procedure, shortened: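 KP4 cells seeded at 1,000–10,000 per well, treated 96 h with 9-point 3-fold dilutions from 30 μM top (4.6 nM–30 μM, duplicates; ≤0.25% DMSO). Viability by CellTiter Glo luminescence; % inhibition relative to DMSO-only wells, giving IC50, relative IC50 or % top inhibition.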
# MCF-10A = experiment: Cell viability assay (CellTiter Glo), non-tumorigenic breast epithelial cell line MCF-10A; format: cell-based; conditions: Homo sapiens, 96 hours
# Protocol: as §1
# Paclitaxel was used as the positive control for cytotoxicity.
# [1] = PK profile, IV plasma concentration and PK parameters; format: in vivo; conditions: Balb/C nude, mouse
# Protocol: The PK profiles of compounds 148, 149, 150, 156 and 169 are shown below. Compound 156 was formulated in 30% Kolliphor EL (Cremophor EL) in water and compounds 148, 149, 150 and 169 were formulated in 30% Kolliphore EL with 1% poloxamar 407 in water. All compounds were dosed at 5 mg/kg. Blood samples were collected at various time points and analyzed using the method described above.
# 786-O = experiment: Cell proliferation (Alamar Blue) assay, 786-O renal cell carcinoma, with/without ferrostatin; format: cell-based; conditions: Homo sapiens, 786-0, Cell Line 786-O; read-out: IC50
# Procedure, shortened: (§2)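 Cells seeded at 5000/well, 16-24 h, then exposed 24 h at 37° C to compound, 10-0.0005 μM in 3-fold dilutions, 1% DMSO final. Alamar Blue fluorescence (ex 540/em 590 nm) read after 1.5 h; IC50 from variable-slope sigmoidal fit.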
# SJSA-1 = experiment: Cell proliferation (Alamar Blue) assay, SJSA-1 osteosarcoma, with/without ferrostatin; format: cell-based, human; conditions: Homo sapiens, SJSA-1, Cell Line SJSA-1; read-out: IC50
# Procedure, shortened: as §2
# [2] = Whole blood stability, mouse; format: in vitro ADME
# Source text: (§3) The results of the assay on stability in blood and IC50 values for pancreatic cancer cell line KP4 are given below in Table 24.
# [3] = Whole blood stability, human; format: in vitro ADME
# Source text: as §3
# A549 = experiment: Cell viability assay, A549 cells; format: cell-based; conditions: Homo sapiens
# Protocol: Example 5: Inducer Compound Effect on Growth of A549 and KP4 Cells
# as §1, with “in” for “in human”, “line” for “lines”, “adenocarcinoma).” for “adenocarcinoma), MiaPaCa-2 (pancreatic carcinoma), AsPC-1 (pancreatic adenocarcinoma, ascites), 143B (osteosarcoma), and SJSA-1 (osteosarcoma). Selected compounds were also assayed in a human breast epithelial cell line MCF-10A, a nontumorigenic cell line as a control to assess differential activity.”, “1,000-10,000” for “500-5,000”, “All” for “Compounds titrated from top concentration of up to 30 μM. The select”, “calculated. […]” for “calculated.”
# [4] = MIA PaCa-2, pancreatic carcinoma, 96 hours, CellTiter Glo, read-out: IC50 MiaPaCa-2
# [5] = Cell Line Mia PaCa-2, read-out: IC50
# [6] = KP-4, Cell Line KP4, read-out: IC50
# [7] = iv, 5 mg/kg, 30% Kolliphore EL with 1% poloxamar 407 in water
# [8] = iv, 5 mg/kg, 30% Kolliphor EL in water (Table 10b)
# [9] = A549, Cell Line A549, read-out: IC50
structure (smiles),measurement,setting,value
CN(C)C(=O)[C@H]1Cc2c([nH]c3ccccc23)[C@@H](c2ccc([Si](C)(C)C)cc2)N1C(=O)CCl [Example 67a],IC50,MiaPaCa-2; [4],1360 nM
COC(=O)[C@H]1Cc2c([nH]c3ccccc23)[C@H](c2ccc(O)cc2)N1C(=O)CCl [Example 265],IC50,MiaPaCa-2; [4],246 nM
same,IC50,MiaPaCa-2; [5],260 nM
same,IC50,KP4; [6],0.16 µM
CN(C)C(=O)[C@H]1Cc2c([nH]c3ccccc23)[C@H](c2ccc(NC(=O)OC(C)(C)C)cc2)N1C(=O)CCl [Example 56],IC50,MiaPaCa-2; [4],759 nM
same,IC50,MCF-10A,1510 nM
COC(=O)[C@H]1Cc2c([nH]c3ccccc23)[C@H](c2ccc(C(=O)OC(C)(C)C)cc2)N1C(=O)/C=C/CCl [Example 25],IC50,MiaPaCa-2; [4],858 nM
"C[C@H]1Cc2c([nH]c3ccccc23)[C@H](c2ccc(NC34CC5CC(CC(C5)C3)C4)cc2)N1C(=O)CCl [Compound 150, 1-((1S,3S)-1-(4-(((3R,5R,7R)-adamantan-1-yl)amino)phenyl)-3-methyl-1,3,4,9-tetrahydro-2H-pyrido[3,4-b]indol-2-yl)-2-chloroethan-1-one]",C0,[1]; [7],3400 ng/mL
same,Cmax,[1]; [7],2260 ng/mL
same,clearance,[1]; [7],113 mL/min/kg
same,AUC(0-t),"[1]; iv, 5 mg/kg, 30% Kolliphore EL with 1% poloxamar 407 in water, read-out: AUC0-t",735 ng·h/mL
same,AUC(0-inf),"[1]; iv, 5 mg/kg, 30% Kolliphore EL with 1% poloxamar 407 in water, read-out: AUC0-∞",740 ng·h/mL
same,Vd,"[1]; iv, 5 mg/kg, 30% Kolliphore EL with 1% poloxamar 407 in water, read-out: Vd",3.25 L/kg
same,Vd,"[1]; iv, 5 mg/kg, 30% Kolliphore EL with 1% poloxamar 407 in water, read-out: Vss",1.64 L/kg
same,half-life,"[1]; iv, 5 mg/kg, 30% Kolliphore EL with 1% poloxamar 407 in water, time points considered 0.25-2 h",19.8 min
same,IC50,786-O,9 nM
same,IC50,SJSA-1,8 nM
COC(=O)[C@H]1Cc2c([nH]c3ccccc23)[C@@H](c2ccc(C(=O)NCCN3CCOCC3)cc2)N1C(=O)CCl [Example 27a],IC50,MiaPaCa-2; [4],3000 nM
same,IC50,"KP4; KP-4, 96 h, pancreatic cancer cell line KP4, 96 hours, CellTiter Glo, read-out: IC50 μM KP4",0.1 to 0.5 µM
same,Whole Blood Stability % Remaining at 37° C. Mouse,[2]; 0 min,100.0%
same,Whole Blood Stability % Remaining at 37° C. Mouse,[2]; 30 min,92.5%
same,Whole Blood Stability % Remaining at 37° C. Mouse,[2]; 60 min,81.1%
same,Whole Blood Stability % Remaining at 37° C. Human,[3]; 0 min,100.0%
same,Whole Blood Stability % Remaining at 37° C. Human,[3]; 30 min,54.1%
same,Whole Blood Stability % Remaining at 37° C. Human,[3]; 60 min,40.9%
COC(=O)C1CCC([C@H]2c3[nH]c4ccccc4c3C[C@H](C(=O)N(C)C)N2C(=O)CCl)CC1 (some centres unmarked) [Example 41],IC50,MiaPaCa-2; [4],40 nM
same,IC50,MCF-10A,40 nM
C#CC(=O)N1[C@@H](CCCC)Cc2c([nH]c3c(F)cc(F)cc23)[C@@H]1c1ccc(F)cc1 [Compound 156],concentration at 5 min,"[1]; 5 mg/kg IV, BID q12, post 2nd dose, 5 min, 30% Kolliphor EL in water",18500 ng/mL
same,concentration at 0.25 h,"[1]; 5 mg/kg IV, BID q12, post 2nd dose, 0.25 h, 30% Kolliphor EL in water",4640 ng/mL
same,concentration at 0.5 h,"[1]; 5 mg/kg IV, BID q12, post 2nd dose, 0.5 h, 30% Kolliphor EL in water",984 ng/mL
same,concentration at 1 h,"[1]; 5 mg/kg IV, BID q12, post 2nd dose, 1 h, 30% Kolliphor EL in water",302 ng/mL
same,concentration at 2 h,"[1]; 5 mg/kg IV, BID q12, post 2nd dose, 2 h, 30% Kolliphor EL in water",105 ng/mL
same,concentration at 4 h,"[1]; 5 mg/kg IV, BID q12, post 2nd dose, 4 h, 30% Kolliphor EL in water",45.9 ng/mL
same,concentration at 8 h,"[1]; 5 mg/kg IV, BID q12, post 2nd dose, 8 h, 30% Kolliphor EL in water",24.4 ng/mL
same,C0,[1]; [8],38200 ng/mL
same,MRT inf,[1]; [8],33.2 min
same,clearance,[1]; [8],14.5 mL/min/kg
same,half-life,[1]; [8],180 min
same,AUC(0-inf),"[1]; iv, 5 mg/kg, 30% Kolliphor EL in water (Table 10b), read-out: AUCInf",5920 ng·h/mL
same,AUC(0-t),"[1]; iv, 5 mg/kg, 30% Kolliphor EL in water (Table 10b), read-out: AUClast",5810 ng·h/mL
same,Vd,"[1]; iv, 5 mg/kg, 30% Kolliphor EL in water (Table 10b), read-out: Vss",0.48 L/kg
same,Vd,"[1]; iv, 5 mg/kg, 30% Kolliphor EL in water (Table 10b), read-out: Vz",3.72 L/kg
same,IC50,A549; [9],4.29 µM
same,IC50,786-O,75.1 nM
same,IC50,SJSA-1,42.2 nM
COC(=O)[C@H]1Cc2c([nH]c3ccccc23)[C@H](c2ccc(C(=O)NCCN)cc2)N1C(=O)CCl [Example 15],IC50,MiaPaCa-2; [4],1320 nM
COCCN(C(=O)c1ccc([C@H]2c3[nH]c4ccccc4c3C[C@H](C(=O)N(C)C)N2C(=O)CCl)cc1)C(C)(C)C [Example 52],IC50,MiaPaCa-2; [4],243 nM
same,IC50,MCF-10A,180 nM
same,IC50,"A549; A549, A549, read-out: IC50 for A549",0.28 to 0.36 µM
COC(=O)[C@H]1Cc2c([nH]c3ccccc23)[C@H](c2ccc(C(=O)OC(C)(C)C)cc2)N1C(=O)C(Cl)Cl [Compound 263],IC50,MiaPaCa-2; [4],5570 nM
same,IC50,MiaPaCa-2; [5],5570 nM
same,IC50,KP4; [6],10.4 µM
same,IC50,A549; [9],6.22 µM
COC(=O)[C@H]1Cc2c([nH]c3ccccc23)[C@@H](c2ccc(S(=O)(=O)N(C)C)cc2)N1C(=O)CCl [Example 23a],IC50,MiaPaCa-2; [4],3150 nM
CN(C)C(=O)c1ccc([C@H]2c3[nH]c4ccccc4c3C[C@H](C(=O)N(C)C)N2C(=O)CCl)cc1 [Example 38],IC50,MiaPaCa-2; [4],3630 nM
same,IC50,MCF-10A,19600 nM
COC(=O)c1ccc([C@H]2c3[nH]c4ccccc4c3C[C@H](C(=O)OC)N2C(=O)/C=C/CN(C)C)cc1 [Compound 273],IC50,MiaPaCa-2; [5],10 nM
same,IC50,KP4; [6],1.71 µM
same,IC50,A549; [9],3.23 µM
CN(C)C(=O)[C@H]1Cc2c([nH]c3ccccc23)[C@H](c2ccc(S(C)(=O)=O)cc2)N1C(=O)CCl [Example 59],IC50,MiaPaCa-2; [4],591 nM
same,IC50,MCF-10A,8780 nM
CN(C)C(=O)[C@H]1Cc2c([nH]c3ccccc23)[C@H](c2ccc(C(=O)NC[Si](C)(C)C)cc2)N1C(=O)CCl [Example 66],IC50,MiaPaCa-2; [4],159 nM
